Measured values from US20240316008A1, “TREATMENT OF SYSTEMIC IMMUNE ACTIVATION SYNDROMES” (TRANQUIS THERAPEUTICS, INC., priority 2020, published 2024).
Structures can show the parent of a compound that is named as a salt.

Assays:
[1] = test system: TNFα; test: TNFα release by LPS-stimulated BV2 cells (ELISA); type: cell-based, murine; conditions: BV-2 cells, ELISA, concentration-response
Protocol: First, 100 μl of supernatant was removed from Cell Plate and transferred to a Dilution Plate, which was then centrifuged at 216×g for 10 minutes to remove particulates. The dilution plate was either assayed immediately or aliquots were taken and stored at stored at ≤−20° C.; repeated freeze-thaw cycles were avoided.
Next, a standard curve was prepared by first pipetting 900 ul of Calibrator Diluent RD5K into the 700 pg/mL tube, followed by 200 μl of the appropriate calibrator diluent in the remaining tubes. The stock solution was used to produce a dilution. The resulting tubes were then thoroughly mixed. The Mouse TNFα Standard (700 pg/mL) served as the high standard, and the Calibrator Diluent RD5T served as the zero standard at 0 pg/ml.
Assay Diluent RD1-63 (50 ul) was then added to the center of each well and mixed before and during its use. Then, 50 ul of either standard, control, or sample was added to the center of each well, and covered with adhesive strip. The plate was then mixed for 1 minute and incubated for 2 hours at room temperature.
Each well was then aspirated and washed by filling each well with Wash Buffer (400 ul) five times. After the last wash, the remaining Wash Buffer was removed by aspirating or decanting. TNFα […] conjugate (100 ul) was then added to each well, covered with adhesive strip, incubated for 2 hours at room temperature, and washed and/or aspirated five times.
Substrate solution (100 ul) was then added to each well, incubated in the dark for 30 minutes at room temperature, followed by addition of 100 μl of Stop Solution and mixed. The optical density of each well was determined within 30 minutes by using a microplate reader set to 450 nm.
Plates were read on a Spectrostar Nano machine with built-in MARS data analysis at […].
For TNFα ELISA, the BV-2 cells were very responsive to low concentrations of LPS. A concentration range of 0.1 ng/ml to 1,000 ng/ml was tested. 0.3 ng/ml LPS produced enough TNFα release (8-10 fold above background) from these cells after 22 hours stimulation without saturating the linear range of the ELISA detection system. If higher LPS concentrations are used for stimulating BV-2 cells, a […] is advised to stay within the linear range of the detection system. The current TNFα protocol uses 10,000 cells per well in 96 well plate. A cell count titration can optimize S/B ratio. Miniaturization from 96 well to 384 well is also feasible with this assay.
The TNFα ELISA assay is described in Example 5. The IL-6 assay is described below.

[2] = test system: IL-6; test: IL-6 secretion from LPS-stimulated BV2 cells (ELISA); type: cell-based, murine; conditions: BV-2 cells, concentration-response
Protocol: [1] First, 100 μl of supernatant from cell plate was removed and transferred to a dilution plate, followed by centrifugation of the dilution plate at 216×g for 10 minutes to remove particulates. The dilution plate was then either assayed immediately or aliquots were taken and stored at ≤−20° C.; repeated freeze-thaw cycles should be avoided. Mouse IL-6 Standard (500 pg/mL) served as the high standard, and the Calibrator Diluent RD5T served as the zero standard at 0 pg/ml. Assay Diluent RD1-14 (50 μl) was then added to the center of each well and mixed before and during its use. Then, 50 μl of standard, control, or sample was added to the center of each well, and covered with adhesive strip. The plate was then mixed for 1 minute and incubated for 2 hours at room temperature. Each well was then aspirated and washed by filling each well with wash buffer (400 ul) five times. After the last wash, the remaining Wash Buffer was removed by aspirating or decanting. Mouse IL-6 conjugate (100 ul) was then added to each well, covered with adhesive strip, incubated for 2 hours at room temperature, and washed and/or aspirated five times.
Substrate solution (100 ul) was then added to each well, incubated in the dark for 30 minutes at room temperature, followed by addition of 100 ul of Stop Solution and mixed. The optical density of each well was determined within 30 minutes by using a microplate reader set to 450 nm.

[3] = test system: sepsis; test: Mouse model of sepsis / hyperinflammation (virus followed by LPS, as described in Wang); conditions: mice, intravenous, various doses
Protocol: Briefly, mice are anesthetized with a ketamine/xylazine mixture. A virus, such as a coronavirus, influenza virus, rhinovirus, respiratory syncytial virus, metapneumovirus, adenovirus, or a boca virus, is administered. The virus may be administered intranasally dropwise.
Next, LPS diluted in a buffer, such as PBS, is injected intraperitoneally at specific doses.
To provide comparators for assessing the effects of TQS-168 and its analogs, groups of positive control mice are treated with one or more antibodies against pro-inflammatory cytokines of interest: anti-NK1.1 antibody (PK136; Bio X Cell) diluted in PBS is injected at 100 μg per injection (100 μL) retro-orbitally concurrently with each challenge; anti-IFNγ antibody (XMG1.2, Bio X Cell) is diluted in PBS and injected at 500 μg per injection (100 μL) retro-orbitally concurrently with each challenge; anti-IL6R (15A7.10 mg/kg; Bio X Cell), anti-TNFα (XT3.11, 500 μg per injection; Bio X Cell), anti-IFNαR (MAR1-5A3, 10 mg/kg; Bio X Cell), and anti-IL1β (B122, 500 μg per injection; Bio X Cell) are injected retro-orbitally. For a negative control, isotype antibody is injected retro-orbitally.
The pro-inflammatory cytokines can be measured using the ELISA assay described in Example 1.

[4] = test system: 12 human primary cell-based systems; conditions: 5000 μM, comparator profile; cited from earlier work
[5] = test system: ALS; conditions: transgenic mouse model of ALS; cited from earlier work

Compound	LPS-stimulated TNFα secretion [1]	LPS-stimulated IL-6 secretion [2]	circulating concentrations of pro-inflammatory cytokines [3]	hyperinflammatory symptoms [3]	T-cell proliferation, IgG, TNFα, and IL-8 [4]	disease onset [5]	lifespan [5]
CC(C)(C)c1cccc(-c2nc3c(F)cc(F)cc3[nH]2)c1 [TQS-237]	decrease	decrease	effective in reducing	effective in reducing	–	–	–
CN(C)C(=N)N=C(N)N [metformin, metformin hydrochloride]	–	–	–	–	inhibit	–	–
CC(C)(C)c1ccc(-c2nc3cc(C(F)(F)F)ccc3[nH]2)cc1 [TQS-236]	decrease	decrease	–	–	–	–	–
CC(=O)N(O)CCCCCNC(=O)CCC(=O)N(O)CCCCCNC(=O)CCC(=O)N(O)CCCCCN [Deferoxamine, deferoxamine mesylate]	–	–	–	–	–	delay	extend
[2H]c1c([2H])c([2H])c2[nH]c(-c3ccc(C(C)(C)C)cc3)nc2c1[2H] [TQS-239]	decrease	decrease	–	–	–	–	–
CC(C)(C)c1ccc(-c2nc3c(F)cc(F)cc3[nH]2)cc1 [TQS-235]	decrease	decrease	effective in reducing	effective in reducing	–	–	–
CC(C)(C)c1ccc(-c2cn3ccccc3n2)cc1 [TQS-238]	decrease	decrease	–	–	–	–	–
CC(C)(C)c1ccc(-c2nc3c(F)c(F)c(F)cc3[nH]2)cc1 [TQS-240]	decrease	decrease	effective in reducing	effective in reducing	–	–	–
CC(C)(C)c1ccc(-c2nc3ccncc3[nH]2)cc1 [TQS-234]	decrease	decrease	–	–	–	–	–
